Experimental data published in patent publication US10308916B2, “Omega-transaminase mutants with activity improvements toward ketones and methods for producing optically pure amines” (Industry-Academic Cooperation Foundation, Yonsei University, priority 2015, dated 2019).
Where two headings read alike, the source gives them in different places.

What was measured:
[1] = system: OATA WT; assay type: biochemical, Ochrobactrum anthropi; conditions: pH 7
[2] = system: OATA WT; assay type: biochemical
[3] = system: OATA WT; assay type: biochemical, Ochrobactrum anthropi
[4] = system: (S)-selective omega-transaminase from Ochrobactrum anthropi; conditions: cited from earlier work
[5] = biological target: OATA (Brucella anthropi, UniProt A6WVC6); assay type: biochemical
[6] = system: ARTAmut; conditions: cited from earlier work
[7] = system: OATA WT; assay type: biochemical; remark: listed apart in the source
[8] = system: OATA WT; assay type: biochemical; remark: listed apart in the source
[9] = system: OATA W58I; assay type: biochemical; conditions: pH 7
[10] = system: OATA W58M; assay type: biochemical; conditions: pH 7
[11] = system: OATA L57A; assay type: biochemical
[12] = system: OATA W58V; assay type: biochemical; conditions: pH 7
[13] = system: OATA L57A/W58A; assay type: biochemical
[14] = system: OATA W58A; assay type: biochemical; conditions: pH 7
[15] = system: OATA W58L; assay type: biochemical; conditions: pH 7
[16] = system: OATA L57A/W58A/V154A; assay type: biochemical
[17] = system: OATA W58A; assay type: biochemical
[18] = system: OATA WT; assay type: biochemical, Ochrobactrum anthropi; remark: listed apart in the source
[19] = system: OATA WT; assay type: biochemical, Ochrobactrum anthropi; remark: listed apart in the source
[20] = system: CC(=O)C(=O)O; assay: purified protein, by the assay type

Row | Compound | Relative activity to acetophenone, OATA WT [1] [%] | Relative reactivity, OATA [2] [%] | further results
1 | COc1ccc(C(C)=O)cc1 [Ketone 1e, 4-methoxyacetophenone] | 29 | – | –
2 | C[C@H](N)c1cccc2ccccc12 [(S)-1-(1-naphthyl)ethylamine] | – | 0.5 | –
3 | NCc1ccccc1 [Benzylamine] | – | 274 | –
4 | Cc1ccc([C@H](C)N)cc1 [(S)-α,4-dimethylbenzylamine] | – | 86 | –
5 | Cc1cccc(C)c1OCC(C)N (stereo not shown) [Mexiletine, reference compound] | – | 27 | –
6 | CCC(=O)C(=O)O [2-oxobutanoic acid] | – | – | Relative activity, OATA WT [3]: 17.2%
7 | cyclpropyl methyl ketone [Ketone 1o] | 17 | – | –
8 | CC(=O)c1ccccc1 [Ketone 1a, acetophenone] | 100 | – | activity relative to pyruvate [4]: 0.03%; kcat, OATA [5]: 9.7, 540 ×10^−3 s^−1; Conversion [6]: 19%; Relative activity, OATA WT [7]: 100%
9 | CCCC(C)N (stereo not shown) [2-Aminopentane] | – | 13 | –
10 | C[C@H](N)C1CC1 [(S)-1-Cyclopropylethylamine] | – | 29 | –
11 | CC(=O)C(C)C [Ketone 1m, 3-methyl 2-butanone] | 161 | – | –
12 | CCC(C)=O [Ketone 2-butanone, 2-butanone] | 317 | – | –
13 | CC(=O)C(=O)O [pyruvate, pyruvic acid] | – | – | Relative activity, OATA WT [3]: 100%
14 | CCCCC(C)=O [Ketone 1k, 2-hexanone] | 151 | – | Conversion (%) OATA [8]: 14%
15 | CC(=O)CO [hydroxyacetone] | 364 | – | –
16 | CC(=O)CC(C)C [Ketone 1n, 4-methyl-2-pentanone] | 21 | – | –
17 | CC(N)CO (racemic) [DL-Alaninol] | – | 16 | –
18 | COCC(C)N (stereo not shown) [1-Methoxy-2-propylamine] | – | 29 | –
19 | CC[C@H](N)c1ccccc1 [(S)-α-ethylbenzylamine] | – | 2 | –
20 | CCCCCCC(C)=O [Ketone 1l, 2-octanone] | 208 | – | Conversion (%) OATA [8]: 30%
21 | (S)-sec-butylamine | – | 29 | –
22 | CCCCCC[C@H](C)N [(S)-2-aminooctane] | – | 146 | –
23 | CCCCC(=O)C(=O)O [2-oxohexanoic acid] | – | – | Relative activity, OATA WT [3]: 1%
24 | CCC[C@H](N)c1ccccc1 [(S)-α-propylbenzylamine] | – | 0.2 | –

Row | Compound | Relative activity to acetophenone, OATA WT [1] [%] | Relative reactivity, OATA [2] [%] | further results
25 | CC(C)C(C)N (stereo not shown) [1,2-Dimethylpropylamine] | – | 18 | –
26 | N[C@H]1CCc2ccccc21 [(S)-1-aminoindan] | – | 9 | –
27 | CCCCCCC(=O)C(=O)O [2-oxooctanoic acid] | – | – | Relative activity, OATA WT [3]: 1%
28 | CCC(=O)c1ccccc1 [Ketone 1b, propiophenone] | 1 | – | Relative activity to acetophenone, OATA W58I [9]: 14%; Relative activity to acetophenone, OATA W58M [10]: 17%; Relative activity, OATA L57A [11]: 49%; Relative activity to acetophenone, OATA W58V [12]: 16%; Relative activity, OATA L57A/W58A [13]: 387%; Relative activity to acetophenone, OATA W58A [14]: 14%; Relative activity to acetophenone, OATA W58L [15]: 2%; Relative activity, OATA WT [7]: 17%; Relative activity, OATA L57A/W58A/V154A [16]: 821%; Relative activity, OATA W58A [17]: 259%
29 | CCCC(=O)C(=O)O [2-oxopentanoic acid] | – | – | Relative activity, OATA WT [3]: 0.6%
30 | CC(N)CCc1ccccc1 (stereo not shown) [1-Methyl-3-phenylpropylamine] | – | 73 | –
31 | CC(C)N [Isopropylamine] | – | 20 | kcat, OATA [5]: 9700, 9300 ×10^−3 s^−1
32 | C[C@H](N)c1ccccc1 [(S)-α-methylbenzylamine] | – | 100 | Relative activity, OATA WT [18]: 100%; kcat, OATA [5]: 24000, 20000 ×10^−3 s^−1
33 | COCC(C)=O [methoxyacetone] | 571 | – | –
34 | CC(C)(C)C(N)c1ccccc1 (stereo not shown) [2,2-Dimethyl-1-phenylpropan-1-amine] | – | 0.1 | –
35 | CC(=O)c1ccc(C)cc1 [Ketone 1d, 4-methylacetophenone] | 51 | – | Conversion (%) OATA [8]: 7%
36 | CC(C)C(N)c1ccccc1 (racemic) [2-Methyl-1-phenylpropan-1-amine] | – | 0.1 | –
37 | CC(C)CC(C)N (stereo not shown) [1,3-Dimethylbutylamine] | – | 3 | –
38 | CC(C)C(=O)C(=O)O [3-methyl-2-oxobutyric acid] | – | – | Relative activity, OATA WT [3]: did not react
39 | O=C1CCCc2ccccc21 [Ketone 1h] | – | – | Reaction rate OATA [19]: did not react
40 | COc1ccc([C@H](C)N)cc1 [(S)-4-methoxy-α-methylbenzylamine] | – | 116 | –
41 | CC(N)c1ccc(F)cc1 (stereo not drawn) [4-Fluoro-α-methylbenzylamine] | – | 31 | –
42 | CCCC(C)=O [Ketone 1j, 2-pentanone] | 83 | – | –
43 | (Brucella anthropi ATCC 49188) | – | – | Km [20]: 0.12, 2.1 mM; kcat [20]: 2600, 19000; kcat/Km [20]: 22000, 9000
44 | CC(=O)CCc1ccccc1 [Ketone 1f, benzylacetone] | 536 | – | Conversion (%) OATA [8]: 26%
45 | CCCC[C@H](C)N [(S)-2-aminohexane] | – | 31 | –
46 | 1-acetonaphthone [Ketone 1i] | 43 | – | Conversion (%) OATA [8]: 13%
47 | O=C1CCc2ccccc21 [Ketone 1g] | – | – | Reaction rate OATA [19]: did not react
48 | CCCC(=O)c1ccccc1 [Ketone 1c, butyrophenone] | 0 | – | Relative activity, OATA WT [7]: 2%
